Experimental findings from patent US12275745B2, “Therapeutic compounds and methods of use” (Genentech, Inc., priority 2021, dated 2025) are described below.

Read-outs that look alike come from different tables or passages of the source.

For one assay, the target named is TEAD4 (Homo sapiens, UniProt Q15561). Kind of assay: TR-FRET (Lipid HTRF) TEAD lipid pocket probe displacement assay, TEAD4. The format is binding. As to conditions: His-tagged TEAD4, biotinylated lipid pocket probe, 4 hours.
The target in the next assay is TEAD3 (Homo sapiens, UniProt Q99594). Kind of assay: TR-FRET (Lipid HTRF) TEAD lipid pocket probe displacement assay, TEAD3. The format is binding. As to conditions: His-tagged TEAD3, biotinylated lipid pocket probe, 4 hours.
In the next assay the target is TEAD1 (Homo sapiens, UniProt P28347). Kind of assay: TR-FRET (Lipid HTRF) TEAD lipid pocket probe displacement assay, TEAD1. The format is binding. The conditions noted are these: His-tagged TEAD1, biotinylated lipid pocket probe, 4 hours. On the technique in general: Time-resolved FRET reads energy transfer from a long-lived donor to a nearby acceptor.
The target in assay [1] is T1, TEAD2 (Homo sapiens, UniProt Q15562).
Method: (§1) His-tagged TEAD proteins are pre-incubated with TEAD project compounds for 30 minutes or 4 hours at room temperature. Biotinylated lipid pocket probes are then added to the TEAD/Compound mixture and incubated for 60 minutes at room temperature. The lipid pocket probe competes with the test compound for the TEAD lipid pocket until equilibrium is reached. After 60 minutes, Europium labelled anti-His (Perkin Elmer #AD0110) and XL665 labelled streptavidin (CIS Bio 610SAXAC) are added to the TEAD/test compound/lipid pocket mixture and incubated for 30 minutes or 4 hours. TR-FRET values are then measured using an EnVision multi-label plate reader (Perkin Elmer Cat #2104-001 0A.) If the lipid pocket probe binds to TEAD as expected, a TR-FRET signal results from the proximity of anti-His Eu and XL665. If a TEAD lipid pocket binder such as binds and displaces the lipid pocket probe, the disruption of the TEAD:probe interaction results in a decrease in TR-FRET signal. The potency of compounds as TEAD lipid pocket binders is determined by IC50 value generated using a non-linear 4 parameter curve fit.
Assay [2] concerns the target T1, TEAD2. Kind of assay: biochemical.
Method: as §1

T1 sequence (Q15562 whole entry, species assumed): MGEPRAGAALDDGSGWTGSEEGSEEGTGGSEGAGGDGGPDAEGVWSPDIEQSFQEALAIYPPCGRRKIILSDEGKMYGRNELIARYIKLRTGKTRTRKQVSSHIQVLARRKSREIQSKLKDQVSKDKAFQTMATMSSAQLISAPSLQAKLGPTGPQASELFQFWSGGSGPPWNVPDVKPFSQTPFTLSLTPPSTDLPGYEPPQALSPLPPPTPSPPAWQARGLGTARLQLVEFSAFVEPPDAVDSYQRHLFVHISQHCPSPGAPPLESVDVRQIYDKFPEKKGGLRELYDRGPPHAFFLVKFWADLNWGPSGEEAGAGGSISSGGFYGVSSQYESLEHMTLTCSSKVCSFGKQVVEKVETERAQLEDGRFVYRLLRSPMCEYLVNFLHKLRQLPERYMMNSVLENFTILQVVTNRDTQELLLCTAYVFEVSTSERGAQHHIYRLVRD
TEAD1, sequence (P28347 whole entry, species assumed): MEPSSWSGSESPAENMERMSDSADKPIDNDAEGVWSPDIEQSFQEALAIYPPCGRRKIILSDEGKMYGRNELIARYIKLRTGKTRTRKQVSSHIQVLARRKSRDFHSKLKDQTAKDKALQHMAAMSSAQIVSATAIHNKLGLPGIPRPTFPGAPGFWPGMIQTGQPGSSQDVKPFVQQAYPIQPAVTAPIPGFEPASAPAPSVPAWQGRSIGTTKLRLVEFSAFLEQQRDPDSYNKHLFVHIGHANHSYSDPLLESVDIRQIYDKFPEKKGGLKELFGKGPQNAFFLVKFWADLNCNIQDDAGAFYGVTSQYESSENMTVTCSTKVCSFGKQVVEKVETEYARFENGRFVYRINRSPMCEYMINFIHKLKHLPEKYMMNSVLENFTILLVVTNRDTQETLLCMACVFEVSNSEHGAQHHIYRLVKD
TEAD3, sequence (Q99594 whole entry, species assumed): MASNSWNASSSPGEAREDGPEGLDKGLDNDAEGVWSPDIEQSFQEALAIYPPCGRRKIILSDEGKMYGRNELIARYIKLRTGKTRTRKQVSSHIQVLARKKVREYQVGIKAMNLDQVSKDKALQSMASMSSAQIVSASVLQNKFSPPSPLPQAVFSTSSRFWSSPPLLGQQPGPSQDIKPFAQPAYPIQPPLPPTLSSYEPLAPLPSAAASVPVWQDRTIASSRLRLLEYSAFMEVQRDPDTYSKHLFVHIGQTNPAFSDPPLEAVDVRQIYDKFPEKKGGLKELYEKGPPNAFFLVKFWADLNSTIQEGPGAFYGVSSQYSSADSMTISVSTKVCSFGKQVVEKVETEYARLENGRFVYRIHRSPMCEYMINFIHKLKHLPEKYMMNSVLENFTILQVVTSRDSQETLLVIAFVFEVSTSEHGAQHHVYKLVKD
TEAD4, sequence (Q15561 whole entry, species assumed): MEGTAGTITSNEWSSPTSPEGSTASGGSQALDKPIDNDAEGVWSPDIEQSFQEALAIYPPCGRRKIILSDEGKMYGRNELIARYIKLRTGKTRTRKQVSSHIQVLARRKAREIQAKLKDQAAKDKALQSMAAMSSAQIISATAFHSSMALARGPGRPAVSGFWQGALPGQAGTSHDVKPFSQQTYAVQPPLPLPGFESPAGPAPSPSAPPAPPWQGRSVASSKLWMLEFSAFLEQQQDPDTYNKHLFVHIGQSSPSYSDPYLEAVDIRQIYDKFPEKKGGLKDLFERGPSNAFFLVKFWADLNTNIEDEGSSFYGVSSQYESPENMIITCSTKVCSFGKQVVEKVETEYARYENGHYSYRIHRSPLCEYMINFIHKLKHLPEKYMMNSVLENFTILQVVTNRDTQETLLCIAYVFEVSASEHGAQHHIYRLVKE
Method for TEAD3: as §1
Method for TEAD4: as §1

As a reminder, the IC50 is the concentration that inhibits the measured activity by half. Higher therefore signals weaker potency in that assay. For `C=CC(=O)NCc1cc(-c2ccc(OC(F)(F)F)cc2)c2ncn(C)c2c1[C@@H](C)O` (single isomer, unassigned) [Compound 32], the IC50 on TEAD4 came out at 54 nM; on TEAD3, 2500 nM; on TEAD1, 32 nM; against TEAD2 [1], 10 nM.

Consider `C=CC(=O)NCc1cc(-c2ccc(OC(F)(F)F)cc2)c2ncn(C)c2c1C#CCO` [Compound 58, N-[[4-(3-hydroxyprop-1-ynyl)-3-methyl-7-[4-(trifluoromethoxy)phenyl]benzimidazol-5-yl]methyl]prop-2-enamide], for which the 50% inhibitory concentration (IC50) on TEAD4 was found to be 3.5 nM; at TEAD3, 93 nM; on TEAD1 it was 6.9 nM; at TEAD2 [1], 6 nM.

As to `C=CC(=O)NCc1nc(-c2ccc(OC(F)(F)F)cc2)c2occc2n1` [Compound 10, N-[[4-[4-(trifluoromethoxy)phenyl]furo[3,2-d]pyrimidin-2-yl]methyl]prop-2-enamide], the IC50 amounted to 1300 nM against TEAD2 [2], 94 nM at TEAD4, 410 nM at TEAD3 and 140 nM on TEAD1.

In the case of `C=CC(=O)NCc1cc(-c2ccc(OC(F)(F)F)cc2)c2ncccc2c1C#N` [Compound 16, N-[[5-cyano-8-[4-(trifluoromethoxy)phenyl]-6-quinolyl]methyl]prop-2-enamide], the 50% inhibitory concentration (IC50) came out at 51 nM against TEAD2 [2], 37 nM at TEAD4, 37 nM at TEAD3 and 24 nM at TEAD1.

With `C=CC(=O)NCc1cc(-c2ccc(OC(F)(F)F)cc2)c2c(c1[C@H](O)[C@H](C)O)CCO2` (single isomer, unassigned) [Compound 89], the IC50 worked out at 34 nM at TEAD2 [2], 150 nM at TEAD4, 4800 nM at TEAD3 and 160 nM on TEAD1.

Consider `C=CC(=O)NCc1cc(Oc2ccc(C(F)(F)F)cc2)c2ncccc2c1[C@H](O)CO` (single isomer, unassigned) [Compound 147], for which the IC50 against TEAD2 [2] was determined as 19 nM; on TEAD4, 890 nM; on TEAD3 it was 610 nM; at TEAD1 it was 110 nM.

As for `C=CC(=O)NCc1cc(-c2ccc(OC(F)(F)F)cc2)c2ncn(C)c2c1C(F)F` [Compound 77, N-[[4-(difluoromethyl)-3-methyl-7-[4-(trifluoromethoxy)phenyl]benzimidazol-5-yl]methyl]prop-2-enamide], the IC50 is 4 nM at TEAD2 [2], 2.5 nM at TEAD4, 110 nM on TEAD3 and 11 nM on TEAD1.

For the compound `C=C(F)C(=O)NCc1cc(-c2ccc(OC(F)(F)F)cc2)c2nccnc2c1[C@@H](O)CO` [Compound 80, (R)-N-((5-(1,2-Dihydroxyethyl)-8-(4-(trifluoromethoxy)phenyl)quinoxalin-6-yl)methyl)-2-fluoroacrylamide], the IC50 against TEAD2 [2] turned out to be 110 nM; on TEAD4 it was 740 nM; at TEAD3 it was 840 nM; on TEAD1, 130 nM.

With `C=CC(=O)NCc1cc(-c2ccc(S(F)(F)(F)(F)F)cc2)c2c(c1CO)CCO2` [Compound 24, N-((4-(Hydroxymethyl)-7-(4-(pentafluoro-16-sulfaneyl)phenyl)-2,3-dihydrobenzofuran-5-yl)methyl)acrylamide], the IC50 at TEAD2 [2] amounted to 120 nM; at TEAD4 it was 27 nM; at TEAD3 it was 39 nM; on TEAD1, 32 nM.

`C=CC(=O)NCc1nc(-c2ccc(OC(F)(F)F)cc2)c2ncn(C)c2n1` [Compound 69, N-[[9-methyl-6-[4-(trifluoromethoxy)phenyl]purin-2-yl]methyl]prop-2-enamide]: the IC50 was 100 nM on TEAD2 [2], 7.5 nM at TEAD4, 97 nM on TEAD3 and 40 nM on TEAD1.

For the compound `C=CC(=O)NCc1cc(-c2ccc(OC(F)(F)F)cc2)c2c(c1[C@@H](O)CC#N)CCO2` (single isomer, unassigned) [Compound 92], the IC50 turned out to be 16 nM on TEAD2 [2], 340 nM on TEAD4, 1600 nM on TEAD3 and 760 nM on TEAD1.

Regarding `C=CC(=O)NCc1cc(-c2ccc(OC(F)(F)F)cc2)c2cccnc2c1[C@H](O)CO` (single isomer, unassigned) [Compound 45], the IC50 against TEAD2 [2] worked out at 18 nM; at TEAD4, 380 nM; on TEAD3 it was 1200 nM; at TEAD1, 48 nM.

For the compound `C=CC(=O)N(C)Cc1cc(-c2ccc(OC(F)(F)F)cc2)c2c(c1C#N)CCO2` [Compound 95, N-((4-cyano-7-(4-(trifluoromethoxy)phenyl)-2,3-dihydrobenzofuran-5-yl)methyl)-N-methylacrylamide], the IC50 at TEAD2 [2] is 8.8 nM; on TEAD4, 3.8 nM; on TEAD3, 9.5 nM; on TEAD1, 8.6 nM.

Take `C=CC(=O)NC1CN(c2nc(-c3ccc(OC(F)(F)F)cc3)c3ncn(C)c3n2)C1` [Compound 127, N-(1-(9-Methyl-6-(4-(trifluoromethoxy)phenyl)-9H-purin-2-yl)azetidin-3-yl)acrylamide]: the IC50 is 28 nM at TEAD2 [2], 23 nM on TEAD4, 420 nM at TEAD3 and 26 nM on TEAD1.

On to `C=CC(=O)NCc1cc(-c2ccc(S(F)(F)(F)(F)F)cc2)c2c(c1[C@H](O)CO)CCO2` (stereo in doubt) [Compound 96, N-[[7-[4-(Pentafluoro-6-sulfanyl)phenyl]-4-[rac-(1R)-l,2-dihydroxyethyl]-2,3-dihydrobenzofuran-5-yl]methyl]prop-2-enamide], for which the IC50 against TEAD2 [2] stood at 33 nM; at TEAD4, 23 nM; on TEAD3, 72 nM; at TEAD1 it was 43 nM.

For `C=CC(=O)NCc1cc(-c2ccc(OC(F)(F)F)cc2)c2ncoc2c1[C@@H](O)CO` (single isomer, unassigned) [Compound 106], the IC50 is 24 nM against TEAD2 [2], 180 nM on TEAD4, 1000 nM on TEAD3 and 180 nM on TEAD1.

For the compound `C=CC(=O)NCc1cc(-c2ccc(OC(F)(F)F)cc2)c2cccnc2c1CO` [Compound 44, N-[[8-(hydroxymethyl)-5-[4-(trifluoromethoxy)phenyl]-7-quinolyl]methyl]prop-2-enamide], the IC50 on TEAD2 [2] was found to be 16 nM; on TEAD4 it was 54 nM; on TEAD3 it was 18 nM; on TEAD1 it was 11 nM.

On to `C=CC(=O)NCc1nc(-c2ccc(OC(F)(F)F)cc2)c2ccccc2n1` [Compound 7, N-((4-(4-(trifluoromethoxy)phenyl)quinazolin-2-yl)methyl)acrylamide], for which the IC50 on TEAD2 [2] amounted to 640 nM; at TEAD4, 40 nM; on TEAD3, 230 nM; at TEAD1, 18 nM.

As to `C=CC(=O)NCc1cc(-c2ccc(OC(F)(F)F)cc2F)c2ncn(C)c2c1C#N` [Compound 143, N-((7-Cyano-4-(2-fluoro-4-(trifluoromethoxy)phenyl)-1-methyl-1H-benzo[d]imidazol-6-yl)methyl)acrylamide], the IC50 on TEAD2 [2] was 22 nM; at TEAD4, 9.5 nM; on TEAD3, 69 nM; at TEAD1, 26 nM.

Regarding `C=CC(=O)NCc1cc(-c2ccc(OC(F)(F)F)cc2)c2ncn(C)c2c1[C@@H](C)O` (single isomer, unassigned) [Compound 138], the concentration for half-maximal inhibition (IC50) against TEAD2 [2] is 10 nM; on TEAD4, 92 nM; on TEAD3 it was 3600 nM; on TEAD1, 60 nM.

`C#Cc1ccc(-c2cc(CNC(=O)C=C)c(CO)c3c2OCC3)cc1` [Compound 93, N-((7-(4-Ethynylphenyl)-4-(hydroxymethyl)-2,3-dihydrobenzofuran-5-yl)methyl)acrylamide]: the IC50 amounted to 540 nM at TEAD2 [2], 490 nM on TEAD4, 1100 nM at TEAD3 and 880 nM at TEAD1.

As to `C=CC(=O)NCc1cc(-c2ccc(OC(F)(F)F)cc2)c2c(c1[C@@H](O)[C@@H](C)O)CCO2` (single isomer, unassigned) [Compound 90], the IC50 against TEAD2 [2] is 29 nM; on TEAD4 it was 63 nM; on TEAD3, 400 nM; at TEAD1, 170 nM.

As for `C=C(F)C(=O)N1CC(n2cc(-c3ccc(OC(F)(F)F)cc3)c3ncn(C)c3c2=O)C1` [Compound 136, 5-(1-(2-Fluoroacryloyl)azetidin-3-yl)-3-methyl-7-(4-(trifluoromethoxy)phenyl)-3,5-dihydro-4H-imidazo[4,5-c]pyridin-4-one], the IC50 at TEAD2 [2] came to 30 nM; on TEAD4, 12 nM; on TEAD3 it was 47 nM; at TEAD1, 18 nM.

Take `C=C(F)C(=O)N1CC(n2cc(-c3ccc(OC(F)(F)F)cc3)c3nccnc3c2=O)C1` [Compound 134, 6-(1-(2-Fluoroacryloyl)azetidin-3-yl)-8-(4-(trifluoromethoxy)phenyl)pyrido[3,4-b]pyrazin-5(6H)-one]: the IC50 on TEAD2 [2] amounted to 1700 nM; at TEAD4 it was 650 nM; on TEAD3, 310 nM; on TEAD1, 200 nM.

For `O=C(C1=CCC1)N1CC(c2cc(-c3ccc(OC(F)(F)F)cc3)c3nccnc3c2[C@H](O)CO)C1` [Compound 87, (S)-Cyclobut-1-en-1-yl(3-(5-(1,2-dihydroxyethyl)-8-(4-(trifluoromethoxy)phenyl)quinoxalin-6-yl)azetidin-1-yl)methanone], the IC50 at TEAD2 [2] was 16 nM; on TEAD4, 11 nM; on TEAD3, 140 nM; on TEAD1 it was 50 nM.

Turning to `C=CC(=O)N(C)Cc1cc(-c2ccc(OC(F)(F)F)cc2)c2nccn2c1` [Compound 38, N-methyl-N-[[8-[4-(trifluoromethoxy)phenyl]imidazo[1,2-a]pyridin-6-yl]methyl]prop-2-enamide], the IC50 at TEAD2 [2] worked out at 33 nM; at TEAD4, 6.8 nM; at TEAD3, 26 nM; on TEAD1, 20 nM.
